{"source": "patent US6433012B1", "about": "“Method for inhibiting inflammatory disease” (Large Scale Biology Corp., priority 1998, dated 2002)", "tested_on": "angiogenesis induced by hFGF-B in the chick chorioallantoic membrane (CAM)", "assay": "Chick chorioallantoic membrane (CAM) assay, 14C-proline incorporation into collagenous protein", "assay_type": "in vivo", "set-up": "inhibition of hFGF-B-induced angiogenesis: dose or concentration left out as unconfirmed", "text": "This example illustrates the anti-angiogenic properties of methyl-3,5-diiodo-4-(4′-methoxyphenoxy)benzoate in the chick chorioallantoic membrane assay (CAM). The endpoint of the CAM assay was a quantitative determination of basement membrane biosynthesis by measuring the incorporation of ^14C-proline into Type IV collagenous protein.\nThe CAM assay involves the development of live chick embryos in Petri dishes under special sterile conditions. Therefore, only limited numbers of embryos can be used for evaluation of compounds in a single experiment. For this reason, two separate assays were conducted to test the three Biosource compounds at three concentrations per compound. In this assay, a known angiogenesis inhibitor, 2-methoxyestradiol (2-ME), was used as the positive control, and human fibroblast growth factor (hFGF) was used to induce angiogenesis in the CAM.\nFor testing, a minimum amount of acetone-methanol (1:1) was added to the test compounds for sterilization. The acetone-methanol mixture was then evaporated to dryness in a sterile hood. The compounds were dissolved dimethyl sulfoxide (DMSO) first and then diluted with saline containing methylcellulose. The final concentrations were 2% DMSO and 0.5% methylcellulose. All test solutions were added to each CAM in […].\nFresh fertile eggs were incubated for three days in a standard egg incubator. On Day 3, eggs were cracked under sterile conditions and embryos were placed in 20×100 mm plastic Petri dishes and cultivated at 37° C. in an embryo incubator with a water reservoir on the bottom shelf. Air was continuously bubbled into the water reservoir by using a small pump so that the humidity in the incubator was kept constant. Observations were made daily to ensure that all embryos were healthy. Dead or unhealthy embryos were removed from the incubator immediately to avoid contamination. On Day 9, a sterile silicone ring cup was placed on each CAM and […] of ^14C-proline with or without the test compound plus 2.5 ng of hFGF dissolved in saline containing 0.5% methylcellulose was delivered into each ring cup in a sterile hood. 2-ME was tested in parallel to serve as a reference compound. After addition of test materials, the embryos were returned to the incubator and cultivation continued. On Day 12, all embryos were transferred to a cold room at 4-10° C. The antiangiogenic effect of each test compound was determined by using the collagenase assay (Maragoudakis, et al., J. Pharm. Exp. Ther. 251:679-682 (1989)) to measure ^14C-proline incorporation into collagenous protein.\nWith the embryos placed on ice, a piece of CAM 10 mm in diameter was cut off under each ring cup and placed in a separate tube. To each tube was added 1.0 mL of phosphate-buffered saline (PBS, pH 7.3) containing 0.11 mg cycloheximide and 0.17 mg dipyridyl. The tubes were placed in a boiling water bath for 10 min and then cooled to room temperature. The PBS in each tube was discarded after centrifugation at 3000× g for 10 min. The CAM residue was washed once with 3 mL of 15% TCA and then three times with 3 mL of 5% TCA. Centrifugation was carried out as described above between each washing. At this point all non-protein bound radioactivity was removed, and the CAM containing the newly synthesized ^14C-collagenous protein was suspended in 0.9 mL of 0.1 N NaOH and 1.1 mL of HEPES buffer at pH 7.4. The pH of the sample was neutralized with 0.8 N HCl, using phenol red as indicator.\nTo digest the ^14C-collagenous protein, 7.5 units of collagenase and 500 nmol of calcium chloride in […] of HEPES buffer was added to the above samples, and mixtures were incubated at 37° C. for 4 h. The reaction was stopped by adding 1.0 mL of 20% TCA containing 5 mg of tannic acid into each tube. After vortex mixing, the samples were centrifuged at 3000× g for 10 min. […]", "key": {"[1]": {"settings": "Table 1 experiment, dose 8.3 μg/CAM"}, "[2]": {"settings": "Table 1 experiment, dose 25 μg/CAM"}, "[3]": {"settings": "Table 1 experiment, dose 75 μg/CAM"}, "[4]": {"settings": "Table 2 experiment, dose 8.3 μg/CAM"}, "[5]": {"settings": "Table 2 experiment, dose 25 μg/CAM"}, "[6]": {"settings": "Table 2 experiment, dose 75 μg/CAM"}}, "note": "Marks after values point to notes of the source that are not given here."}
{"smiles": "COC(=O)c1cc(I)c(Oc2ccc(OC)cc2)c(I)c1", "note": "[BTO-956, methyl-3,5-diiodo-4-(4′-methoxyphenoxy)benzoate]", "values": [{"measurement": "inhibition of hFGF-B-induced angiogenesis", "value": 30, "unit": "%"}, {"measurement": "% Inhibition", "setting": "[1]", "value": 0, "unit": "%"}, {"measurement": "^14C-Proline Incorporated into Collagenous Protein (mean ± S.E.)", "setting": "[1]", "value": "6884 ± 1395", "unit": "cpm/mg-protien"}, {"measurement": "% Inhibition", "setting": "[2]", "value": 19, "unit": "%"}, {"measurement": "^14C-Proline Incorporated into Collagenous Protein (mean ± S.E.)", "setting": "[2]", "value": "5098 ± 785", "unit": "cpm/mg-protien"}, {"measurement": "% Inhibition", "setting": "[3]", "value": 31, "unit": "%"}, {"measurement": "^14C-Proline Incorporated into Collagenous Protein (mean ± S.E.)", "setting": "[3]", "value": "4374 ± 651", "unit": "cpm/mg-protien"}, {"measurement": "% Inhibition", "setting": "[4]", "value": 10, "unit": "%"}, {"measurement": "^14C-Proline Incorporated into Collagenous Protein (mean ± S.E.)", "setting": "[4]", "value": "10138 ± 1625", "unit": "cpm/mg-protien"}, {"measurement": "% Inhibition", "setting": "[5]", "value": 18, "unit": "%"}, {"measurement": "^14C-Proline Incorporated into Collagenous Protein (mean ± S.E.)", "setting": "[5]", "value": "9100 ± 1664", "unit": "cpm/mg-protien"}, {"measurement": "% Inhibition", "setting": "[6]", "value": 32, "unit": "%"}, {"measurement": "^14C-Proline Incorporated into Collagenous Protein (mean ± S.E.)", "setting": "[6]", "value": "7534 ± 1099^a cpm/mg-protien"}]}
